Reference: patent US6720346B2, “Thiazole benzamide derivatives and pharmaceutical compositions for inhibiting cell proliferation” (Agouron Pharmaceuticals, Inc., priority 2001, dated 2004)
pIC50, pKi: −log10 of the molar value. Where a name gives a salt, the structure may show the parent alone.

Columns and labels:
[1] = target: T1, human CDK4/cyclin D3 (Homo sapiens, UniProt P11802); test: Inhibition of CDK4/cyclin D retinoblastoma kinase activity (Ki; % inhibition); format: biochemical; conditions: for pKi: apparent Ki, CDK4/cyclin D3, Rb substrate
T1 construct: made in house; host or cells: insect cells co-infected with baculovirus vectors
T1 sequence (P11802 whole entry): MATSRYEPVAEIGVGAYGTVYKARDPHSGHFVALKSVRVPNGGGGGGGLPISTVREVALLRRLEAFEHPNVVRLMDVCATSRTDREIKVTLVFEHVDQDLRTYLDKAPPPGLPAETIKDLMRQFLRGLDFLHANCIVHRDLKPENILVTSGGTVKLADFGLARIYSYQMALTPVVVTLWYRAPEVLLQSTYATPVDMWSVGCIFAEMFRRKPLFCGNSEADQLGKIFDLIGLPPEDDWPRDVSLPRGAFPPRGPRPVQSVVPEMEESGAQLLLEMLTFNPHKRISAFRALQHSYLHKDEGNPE
T1 sequence (P30281 1-264 partner limits assumed): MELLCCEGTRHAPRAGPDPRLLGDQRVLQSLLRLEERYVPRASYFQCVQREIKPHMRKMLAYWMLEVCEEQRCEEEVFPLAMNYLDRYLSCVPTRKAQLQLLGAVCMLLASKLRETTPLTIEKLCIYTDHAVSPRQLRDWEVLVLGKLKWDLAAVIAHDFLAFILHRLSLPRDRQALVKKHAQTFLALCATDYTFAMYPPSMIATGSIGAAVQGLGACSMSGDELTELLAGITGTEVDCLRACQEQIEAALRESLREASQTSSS
Method in brief: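 Radiometric filter-binding read-out: Rb residues 386-928 phosphorylated by 5 nM CDK4/cyclin D3(1-264) from baculovirus-infected insect cells, 25 μM ATP, HEPES pH 7.4, 30 °C. Run 20 min, or 60 min for tight-binding inhibitors. Screening at 30 nM theoretical compound; apparent Ki by competitive-inhibition fitting.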

[2] = system: HCT-116 cell line; test: Inhibition of cell growth, MTT tetrazolium salt assay; format: cell-based; conditions: for pIC50: Homo sapiens, HCT-116, 120 h, MTT, three to five days; for HCT-116 % Inhibition at 0.1 μM: 0.1 μM compound
Method in brief: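 Cells in McCoy's 5A medium were given 4 h before compound addition in 0.5% (v/v) DMSO, then incubated 3–5 days at 37 °C, 5% CO2. After 4 h with 0.2 mg/mL MTT, DMSO-solubilized formazan was read at 540 nm; 50% and 90% growth-inhibitory concentrations came from semi-log plots against vehicle controls.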

[3] = target: T2, CDK2/cyclin A (Homo sapiens, UniProt P24941); test: Inhibition of CDK2/cyclin A retinoblastoma kinase activity (Ki; % inhibition); format: biochemical; conditions: for pKi: apparent Ki, CDK2/cyclin A, Rb substrate
T2 construct: made in house; host or cells: CDK2: insect cells (baculovirus); cyclin A: E. coli
Method in brief: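 Apparent Ki values came from fitting concentration-dependent activity data to competitive (or competitive tight-binding) models, and % inhibition from single 30 nM screens of library compounds. Activity was measured as ³²P/³³P incorporation from 25 μM ATP into an Rb substrate by 10 or 19 nM CDK2/delta cyclin A at 30 °C over 60–75 min, pH 7.4.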

[4] = HCT-116 cells, 0.25 μM compound

Compound	pKi [1]	pIC50 [2]	pKi [3]	other results
C[C@@H](NC(=O)c1ccc(Nc2nc(N)c(C(=O)c3c(F)cccc3F)s2)cc1)C(=O)O [Example A65]	7.24	< 6.30	6.80	–
C[C@H](CN(C)C)NC(=O)c1ccc(Nc2nc(N)c(C(=O)c3ccccc3F)s2)cc1 [Example A66, Trifluoroacetic Acid Salt]	6.46	6.92	7.74	–
CN1CCC[C@H]1CNC(=O)c1ccc(Nc2nc(N)c(C(=O)c3ccccc3F)s2)cc1 [Example A67, 4-{4-Amino-5-(2-fluoro-benzoyl)-thiazol-2-ylamino}-N-(1-methyl-pyrrolidin-2S-ylmethyl)-benzamide Trifluoroacetic Acid Salt]	7.06	7.11	7.89	–
Cc1cc(F)c(C(=O)c2sc(Nc3ccc(C(=O)NC[C@@H]4CCCN4C)cc3)nc2N)c(F)c1 [Example A68, 4-{4-Amino-5-(2,6-difluoro-4-methyl-benzoyl)-thiazol-2-ylamino}-N-(1-methyl-pyrrolidin-2S-ylmethyl)-benzamide]	7.35	7.12	8.07	–
C[C@H](NC(=O)c1ccc(Nc2nc(N)c(C(=O)c3c(F)cccc3F)s2)cc1)[C@@H]1CCCN1C [Example A69]	6.63	5.68	7.84	–
Cc1ccsc1C(=O)c1sc(Nc2ccc(C(=O)NC[C@@H]3CCCN3C)cc2)nc1N [Example A70, 4-{4-Amino-5-[1-(3-methyl-thiophen-2-yl)-methanoyl]-thiazol-2-ylamino}-N-(1-methyl-pyrrolidin-2S-ylmethyl)-benzamide]	6.89	7.64	8.21	–
CN1CCC[C@H]1CNC(=O)c1ccc(Nc2nc(N)c(C(=O)c3c(F)cccc3Cl)s2)cc1 [Example A71, 4-[4-Amino-5-(2-chloro-6-fluoro-benzoyl)-thiazol-2-ylamino]-N-(1-methyl-pyrrolidin-2S-ylmethyl)-benzamide]	7.09	7.47	8.25	–
CC(=O)Nc1ccccc1C(=O)c1sc(Nc2ccc(C(=O)NC[C@@H]3CCCN3C)cc2)nc1N [Example A72, 4-{5-(2-Acetylamino-benzoyl)-4-amino-thiazol-2-ylamino}-N-(1-methyl-pyrrolidin-2S-ylmethyl)-benzamide]	–	< 6.30	–	inhibition at 1 µM [1]: 0%; inhibition at 1 µM [3]: 0%
CN1CCC[C@H]1CNC(=O)c1ccc(Nc2nc(N)c(C(=O)c3ccccc3S(C)(=O)=O)s2)cc1 [Example A73, 4-{4-Amino-5-(2-methanesulfonyl-benzoyl)-thiazol-2-ylamino}-N-(1-methyl-pyrrolidin-2S-ylmethyl)-benzamide Trifluoroacetic Acid Salt]	4.44	< 5.30	5.92	–
CN1CCC[C@@]1(C)CNC(=O)c1ccc(Nc2nc(N)c(C(=O)c3c(F)cccc3F)s2)cc1 [Example A74, 4-{4-Amino-5-(2,6-difluoro-benzoyl)-thiazol-2-ylamino}-N-(1,2-dimethyl-pyrrolidin-2S-ylmethyl)-benzamide Trifluoroacetic Acid Salt]	6.42	5.72	8.01	–
CN1CC(CNC(=O)c2ccc(Nc3nc(N)c(C(=O)c4c(F)cccc4F)s3)cc2)C1 [Example A75, 4-[4-Amino-5-(2,6-difluoro-benzoyl)-thiazol-2-ylamino]-N-(1-methyl-azetidin-3-ylmethyl)-benzamide]	7.29	5.72	8.14	–
CN(C)C1(CNC(=O)c2ccc(Nc3nc(N)c(C(=O)c4c(F)cccc4F)s3)cc2)CCCC1 [Example A77, 4-{[4-Amino-5-(2,6-difluorobenzoyl)-1,3-thiazol-2-yl]amino}-N-{[1-(dimethylamino)cyclopentyl]methyl}benzamide]	8.28	6.92	7.08	–
CN(C)C1(CNC(=O)c2ccc(Nc3nc(N)c(C(=O)c4c(F)cccc4F)s3)cc2)CCC1 [Example A78, 4-{[4-Amino-5-(2,6-difluorobenzoyl)-1,3-thiazol-2-yl]amino}-N-{[1-(dimethylamino)cyclobutyl]methyl}benzamide]	8.09	6.89	6.96	–
NC(=O)CNC(=O)c1ccc(Nc2nc(N)c(C(=O)c3c(Cl)cccc3Cl)s2)cc1 [Example B1, 4-[4-Amino-5-(2,6-dichloro-benzoyl)-thiazol-2-ylamino]-N-carbamoylmethyl-benzamide]	7.77	4.74	7.19	–
Nc1nc(Nc2ccc(C(=O)NCCO)cc2)sc1C(=O)c1c(Cl)cccc1Cl [Example B2, 4-[4-Amino-5-(2,6-dichloro-benzoyl)-thiazol-2-ylamino]-N-(2-hydroxy-ethyl)-benzamide]	7.74	5.44	7.02	–
Nc1nc(Nc2ccc(C(=O)NCC(O)CO)cc2)sc1C(=O)c1c(Cl)cccc1Cl (stereo not drawn) [Example B3, 4-[4-Amino-5-(2,6-dichloro-benzoyl)-thiazol-2-ylamino]-N-(2,3-dihydroxy-propyl)-benzamide]	8.10	4.74	7.18	–
CN(C)CCNC(=O)c1ccc(Nc2nc(N)c(C(=O)c3c(Cl)cccc3Cl)s2)cc1 [Example B4, 4-[4-Amino-5-(2,6-dichloro-benzoyl)-thiazol-2-ylamino]-N-(2-dimethylamino-ethyl)-benzamide]	8.10	6.28	6.66	–
Nc1nc(Nc2ccc(C(=O)N3CCN(c4ccccn4)CC3)cc2)sc1C(=O)c1c(F)cccc1F [Example C201]	–	–	–	CDK4 % Inhibition at 0.03 μM ([1]; 0.03 μM compound): 26%; HCT-116 % Inhibition at 0.1 μM ([2]; HCT-116 cells): 17%; HCT-116 % Inhibition at 0.25 μM [2, 4]: 43%; CDK2 % Inhibition at 0.03 μM ([3]; 0.03 μM compound): 6%
CCN(CC)C(=O)c1ccc(Nc2nc(N)c(C(=O)c3c(F)cccc3F)s2)cc1 [Example C232]	–	–	–	CDK4 % Inhibition at 0.03 μM ([1]; 0.03 μM compound): 19%; HCT-116 % Inhibition at 0.1 μM ([2]; HCT-116 cells): 9%; HCT-116 % Inhibition at 0.25 μM [2, 4]: 53%; CDK2 % Inhibition at 0.03 μM ([3]; 0.03 μM compound): 9%
Nc1nc(Nc2ccc(C(=O)N[C@@H]3CCN(Cc4ccccc4)C3)cc2)sc1C(=O)c1c(F)cccc1F [Example C365]	–	–	–	CDK4 % Inhibition at 0.03 μM ([1]; 0.03 μM compound): 22%; HCT-116 % Inhibition at 0.1 μM ([2]; HCT-116 cells): 34%; HCT-116 % Inhibition at 0.25 μM [2, 4]: 93%; CDK2 % Inhibition at 0.03 μM ([3]; 0.03 μM compound): 8%
Nc1nc(Nc2ccc(C(=O)NCCNc3ccccc3)c(O)c2)sc1C(=O)c1c(F)cccc1F [Example D1, 4-[4-Amino-5-(2,6-difluoro-benzoyl)-thiazol-2-ylamino]-2-hydroxy-N-(2-phenylamino-ethyl)-benzamide]	7.77	6.00	8.03	–
CC(CN(C)C)NC(=O)c1ccc(Nc2nc(N)c(C(=O)c3c(F)cccc3F)s2)cc1O (stereo not drawn) [Example D2, 4-[4-Amino-5-(2,6-difluoro-benzoyl)-thiazol-2-ylamino]-N-(2-dimethylamino-1RS-methyl-ethyl)-2-hydroxy-benzamide]	7.60	6.24	7.29	–
CCCN(CC1CC1)C(=O)c1ccc(Nc2nc(N)c(C(=O)c3c(F)cccc3F)s2)cc1 [Example G1]	–	–	–	CDK4 % Inhibition at 0.03 μM ([1]; at 0.03 μM): −10%; HCT-116 % Inhibition at 0.25 μM ([2]; HCT-116, at 0.25 μM): 56%; CDK2 % Inhibition at 0.03 μM ([3]; at 0.03 μM): −3%
CN1CCN(C(=O)c2ccc(Nc3nc(N)c(C(=O)c4c(F)cccc4F)s3)cc2)CC1 [Example G2]	–	–	–	CDK4 % Inhibition at 0.03 μM ([1]; at 0.03 μM): 8%; HCT-116 % Inhibition at 0.25 μM ([2]; HCT-116, at 0.25 μM): 51%; CDK2 % Inhibition at 0.03 μM ([3]; at 0.03 μM): −9%
CN(Cc1ccccc1)C(=O)c1ccc(Nc2nc(N)c(C(=O)c3c(F)cccc3F)s2)cc1 [Example G3]	–	–	–	CDK4 % Inhibition at 0.03 μM ([1]; at 0.03 μM): 4%; HCT-116 % Inhibition at 0.25 μM ([2]; HCT-116, at 0.25 μM): 50%; CDK2 % Inhibition at 0.03 μM ([3]; at 0.03 μM): −1%
CCCCN(CCO)C(=O)c1ccc(Nc2nc(N)c(C(=O)c3c(F)cccc3F)s2)cc1 [Example G4]	–	–	–	CDK4 % Inhibition at 0.03 μM ([1]; at 0.03 μM): 4%; HCT-116 % Inhibition at 0.25 μM ([2]; HCT-116, at 0.25 μM): 53%; CDK2 % Inhibition at 0.03 μM ([3]; at 0.03 μM): −7%
CN(C)C(=O)CN(C)C(=O)c1ccc(Nc2nc(N)c(C(=O)c3c(F)cccc3F)s2)cc1 [Example G5]	–	–	–	CDK4 % Inhibition at 0.03 μM ([1]; at 0.03 μM): −3%; HCT-116 % Inhibition at 0.25 μM ([2]; HCT-116, at 0.25 μM): 47%; CDK2 % Inhibition at 0.03 μM ([3]; at 0.03 μM): −23%
